In PMC12410356 (International Journal for Parasitology: Drugs and Drug …, 2025):

What was measured:
[1] = test system: E. multilocularis metacestode vesicles; experiment: Phosphoglucose isomerase (PGI) release assay (damage-marker release) on metacestode vesicles; format: cell-based, Echinococcus multilocularis; conditions: 10 μM; for PGI d5 (relative PGI release): 5 days; for PGI d12 (relative PGI release): 12 days
[2] = test system: E. multilocularis metacestode vesicles; experiment: Metacestode vesicle viability assay (ATP, CellTiter-Glo); format: cell-based, Echinococcus multilocularis
Procedure: Viability was assessed after 12 days using the same metacestode vesicles as for the PGI release assay. Triton X-100 was added to each well to a final concentration of 0.1 %. Subsequently the metacestode vesicles were broken mechanically and 50 μL of the supernatant was mixed with 50 μL of CellTiter-Glo® buffer (Promega, Dübendorf, Switzerland). Measurements were performed on a HIDEX Sense microplate reader.

[3] = confirmation screen, triplicates, mean
[4] = overview screen, singlets, relative to 0.1 % Triton X-100, DMSO subtracted
[5] = confirmation screen, 10 μM, triplicates, mean, 12 days
[6] = overview screen, 10 μM, singlets, 12 days, relative to DMSO control

Row | Structure (SMILES) | PGI d5 (relative PGI release) [1, 3] | PGI d12 (relative PGI release) [1, 3] | PGI d5 (relative PGI release) [1, 4] | PGI d12 (relative PGI release) [1, 4] | Viability d12 (relative viability) [2, 5] | Viability d12 (relative viability) [2, 6] | Viability d12 (relative viability) ([2]; 10 µM)
1 | NS(=O)(=O)c1ccc(NC(=O)NC(c2ccccc2)c2ccccc2)cc1 [MMV1579776] | -0.15% | -0.30% | -0.6102% | 61.5508% | 80.00% | 8.5167% | –
2 | COc1ccc(OCc2ccc(COc3c(Cl)cccc3Cl)cc2)c(Cl)c1 [MMV1580485] | – | – | -0.2661% | -0.7114% | – | 122.098% | –
3 | CC(C)(C)c1ccc(Oc2ccc(N)cc2)cc1 [MMV1174026] | – | – | -0.5482% | 16.4911% | – | 305.195% | –
4 | O=C(NCc1ccccc1Cl)c1cnc2ccccc2n1 [MMV1230557] | – | – | -1.462% | -11.048% | – | 58.5314% | –
5 | C[Si]1(C)CCN(Cc2cc(-c3ccc(Cl)cc3)n(-c3ccc(Cl)cc3)n2)CC1 [MMV1580843] | – | – | -0.6444% | -1.571% | – | 93.6293% | –
6 | N#Cc1cc([N+](=O)[O-])ccc1Oc1ccccc1Cl [MMV1580800] | – | – | 1.0953% | -9.284% | – | 90.6917% | –
7 | CCOc1ccc(/C=N/NC(=O)C2CC2c2ccc(C(C)(C)C)cc2)cc1OCC (stereo not drawn) [MMV1634398] | – | – | 0.06885% | 0.3627% | – | 324.092% | –
8 | CC[C@@]1(O)C(=O)OCc2c1cc1n(c2=O)Cc2cc3c([N+](=O)[O-])cccc3nc2-1 [MMV1580796] | – | – | 0.7883% | -0.447% | – | 120.917% | –
9 | C[C@@H](c1nc(-c2ccc(C#N)cc2)cs1)[C@](O)(Cn1cncn1)c1ccc(F)cc1F [MMV1634362] | – | – | -1.682% | -23.6483% | – | – | 103.703%
10 | NC(=O)c1ccc(I)c([N+](=O)[O-])c1 [MMV1581035] | – | – | 1.539% | -0.2873% | – | 321.911% | –
11 | NC1C2CC3CC(C2)CC1C3 (stereo not drawn) [MMV180402] | – | – | -0.5217% | -14.4779% | – | 111.504% | –
12 | CC(C)Oc1cccc(NC(=O)c2ccccc2C(F)(F)F)c1 [MMV1009286] | – | – | -2.405% | -25.3832% | – | 77.2348% | –
13 | O=C(NC(=O)N1CCCc2ccccc21)c1ccc(Cl)cc1Cl [MMV1782218] | – | – | -2.44% | -25.0073% | – | 60.7859% | –
14 | Nc1nc(=O)c(Br)c(-c2ccccc2)[nH]1 [MMV690540] | 0.19% | 1.01% | 2.1344% | 38.5177% | 98.22% | 20.6612% | –
15 | Nc1cccc(-c2nc(N)nc(NC3Cc4ccccc4C3)n2)c1 [MMV1581555] | – | – | 2.438% | -5.225% | – | 66.1297% | –
